The target in experiment [1] is T1, USP7 (Homo sapiens, UniProt Q93009). The experiment is described as follows: gel-based GST-UBA52 cleavage assay and Ub-AMC assay with USP7; supported by CETSA, DARTS and HA-Ub-VS competition in HO8910 lysate. It counts as biochemical.
The target of the next experiment is USP2 (Homo sapiens, UniProt O75604). The experiment is described as follows: in vitro deubiquitinase activity assay (Supplementary Figure S1). It counts as biochemical.
Experiment [2] addresses T1, USP7. The experiment is described as follows: biochemical. The note with it: read-out: % Inhibition at 50 μM. On the set-up: Ub-AMC hydrolysis by recombinant USP7 (20 nM), 30 min pre-incubation, fluorescence read-out.

This is an account of results in PMC5363571 (Oncotarget, 2016).

In general, IC50 refers to the concentration at which inhibition is half-maximal. Read a low IC50 as greater potency in that assay. Usually inhibition stands for the relative decrease from the control value, in per cent.

Some results are limits rather than exact numbers.

T1 sequence (Q93009 whole entry): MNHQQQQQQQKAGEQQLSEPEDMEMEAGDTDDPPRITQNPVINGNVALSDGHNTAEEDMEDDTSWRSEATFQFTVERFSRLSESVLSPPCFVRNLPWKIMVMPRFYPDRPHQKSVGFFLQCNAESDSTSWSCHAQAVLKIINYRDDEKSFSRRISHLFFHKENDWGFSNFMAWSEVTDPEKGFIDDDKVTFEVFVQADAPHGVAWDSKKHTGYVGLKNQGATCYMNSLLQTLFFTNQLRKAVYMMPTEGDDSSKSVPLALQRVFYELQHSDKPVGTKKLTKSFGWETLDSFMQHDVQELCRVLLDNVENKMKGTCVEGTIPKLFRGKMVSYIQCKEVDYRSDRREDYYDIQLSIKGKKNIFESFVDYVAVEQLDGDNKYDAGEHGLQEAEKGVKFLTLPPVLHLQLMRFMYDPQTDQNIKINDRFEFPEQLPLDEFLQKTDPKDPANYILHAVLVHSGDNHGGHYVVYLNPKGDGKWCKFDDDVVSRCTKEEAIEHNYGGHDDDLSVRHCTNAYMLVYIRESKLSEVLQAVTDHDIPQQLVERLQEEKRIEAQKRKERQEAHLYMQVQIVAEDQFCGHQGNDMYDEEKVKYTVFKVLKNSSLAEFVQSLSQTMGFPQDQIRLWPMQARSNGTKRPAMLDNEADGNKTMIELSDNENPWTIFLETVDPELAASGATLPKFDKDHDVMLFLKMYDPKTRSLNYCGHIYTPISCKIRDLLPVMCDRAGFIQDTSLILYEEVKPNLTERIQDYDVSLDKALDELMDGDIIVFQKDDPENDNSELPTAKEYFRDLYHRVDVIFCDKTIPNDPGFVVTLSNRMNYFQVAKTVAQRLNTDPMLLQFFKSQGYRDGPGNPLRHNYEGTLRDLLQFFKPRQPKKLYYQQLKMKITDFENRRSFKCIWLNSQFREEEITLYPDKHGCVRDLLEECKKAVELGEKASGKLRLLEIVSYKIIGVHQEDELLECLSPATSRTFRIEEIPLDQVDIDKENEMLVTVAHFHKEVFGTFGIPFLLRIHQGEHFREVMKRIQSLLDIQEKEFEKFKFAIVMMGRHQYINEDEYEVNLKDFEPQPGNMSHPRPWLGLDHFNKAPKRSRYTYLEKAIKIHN
USP2, sequence (O75604 whole entry): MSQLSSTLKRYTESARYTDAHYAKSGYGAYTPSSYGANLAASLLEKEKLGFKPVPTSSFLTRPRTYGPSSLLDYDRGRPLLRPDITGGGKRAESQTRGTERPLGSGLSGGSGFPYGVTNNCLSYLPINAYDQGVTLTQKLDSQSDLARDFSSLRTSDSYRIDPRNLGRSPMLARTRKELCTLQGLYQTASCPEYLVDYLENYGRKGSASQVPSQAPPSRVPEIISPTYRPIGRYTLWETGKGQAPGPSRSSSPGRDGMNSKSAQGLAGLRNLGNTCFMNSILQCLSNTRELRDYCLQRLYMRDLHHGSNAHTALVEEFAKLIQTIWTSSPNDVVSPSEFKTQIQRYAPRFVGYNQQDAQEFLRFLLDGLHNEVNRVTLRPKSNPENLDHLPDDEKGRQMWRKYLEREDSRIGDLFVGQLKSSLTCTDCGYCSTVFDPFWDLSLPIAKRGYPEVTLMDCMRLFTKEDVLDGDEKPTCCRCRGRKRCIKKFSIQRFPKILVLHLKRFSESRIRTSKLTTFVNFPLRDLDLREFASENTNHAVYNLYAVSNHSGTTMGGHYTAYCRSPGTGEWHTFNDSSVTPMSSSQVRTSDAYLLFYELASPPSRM

Turning to `COC(=O)[C@]12CCC(C)(C)C[C@H]1[C@H]1C(=O)C=C3[C@@]4(C)C=C(C#N)C(=O)C(C)(C)[C@@H]4CC[C@@]3(C)[C@]1(C)CC2` [CDDO-Me], the IC50 at USP7 [1] was found to be 14.1 µM; against USP2, 22.3 µM. Further, on USP7 [2], the inhibition at 50 µM amounted to 91.5%.
In the case of `N[C@@H]1C[C@H]1c1ccccc1` (racemic) [Tranylcypromine], at USP7 [2], the inhibition at 50 µM is less than 5%.
In the case of `CC1CNc2c(cccc2S(=O)(=O)N[C@@H](CCCNC(=N)N)C(=O)N2CC[C@@H](C)C[C@@H]2C(=O)O)C1` (stereo partly shown) [Argatroban], the inhibition at 50 µM on USP7 [2] is less than 5%.
On the same count and under the same terms, with `C[C@H]1[C@H](OC(=O)CCC(=O)O)O[C@@H]2O[C@@]3(C)CC[C@H]4[C@H](C)CC[C@@H]1[C@@]24OO3` [Artesunate] the figure was less than 5%.
Consider `CC(=O)Oc1ccccc1C(=O)O` [Acetylsalicylic acid], for which the inhibition at 50 µM at USP7 [2] is less than 5%.
`CNC[C@H](O)c1ccc(O)c(O)c1` [Epinephrine-(+)-tartrate l (-)]: at USP7 [2], the inhibition at 50 µM is less than 5%.
Consider `Cc1scc2c1N(C(=O)CN1CCN(C)CC1)c1ccccc1NC2=O` [Telenzepine 2HCl], for which the inhibition at 50 µM at USP7 [2] was less than 5%.
Still for that read-out and setting: the value for `Nc1ccc(S(=O)(=O)Nc2ncccn2)cc1` [Sulfadiazine] was less than 5%.
